Experiments:
Lactobacillus gasseri = assay: growth of normal vaginal flora bacterium in culture; type: cell-based; conditions: 0.5 mg/ml, anaerobic, 37° C.
Protocol: This example illustrates the effect of the inhibitory agents of this invention on the normal vaginal flora. Lactobacillus gasseri, which is found in normal vaginal flora, was obtained from the American Type Culture Collection (Rockville, Md.) and cultured under anaerobic conditions at 37° C. in the presence of the desired test agents. Control samples without added test agents were also run. Samples were collected at twenty minute intervals starting at 120 minutes after the start of incubation through 240 minutes. The absorbance at 550 nm was used to estimate the cell density and inhibitory effects. Nonoxynol-9 was also evaluated for comparison purposes.

MT2 cells = assay: toxicity towards host cells of the virus assays; type: cell-based; conditions: concentration ranges used in the virus assays
Protocol: Serial dilutions of the test compounds (ranging from 0.1 μg/ml to 1.0 mg/ml) were added to HIV-1 virus such that 50 μl inoculum produced between 70 to 100 syncytia per well in untreated wells containing MT2 cells. The mHV-1 used was strain IIIs propagated in, and harvested from, a T4-lymphobastoid cell line. Each serial dilution of the test compound with virus was placed in each of three wells containing MT2 cells. The test compound alone was added to a fourth well containing MT2 cells to test for possible cytotoxicity. Triplicate virus control samples (no added test compounds but containing the equivalent amounts of the RPMI medium) were also included.

[1] = system: sheep testicular hyaluronidase; assay: hyaluronidase inhibition (hyaluronic acid hydrolysis); type: biochemical; conditions: pH 5.5, 10 minutes preincubation, 30 minutes at room temperature
Protocol: Hyaluronidase activity was quantitatively determined by measuring the extent of hyaluronic acid hydrolysis (i.e., the concentration of N-acetylglucosamine-reactive material formed from enzyme activity). Reaction mixtures (0.25 ml) containing the following were prepared: test compound (variable concentration); 0.1 M sodium acetate; 0.15 M sodium chloride; pH adjusted to 5.5; 7.2 units sheep testicular hyaluronidase (Sigma, Type III; H-2251) contained in an acetate buffer; 0.3 mg/ml hyaluronic acid (Sigma, from bovine vitreous humor; H-7630). The enzyme was preincubated with the test agent (1 mg/ml for screening purposes) for 10 minutes before starting the reaction by the addition of hyaluronic acid. The enzyme reaction was determined using the method of Aronson and Davidson (J. Biol. Chem. 241 437-440 (1967)). The reaction mixture was incubated for 30 minutes at room temperature. The reaction product was determined calorimetrically with p-dimethylaminobenzaldehyde (Reissig et al., J. Biol. Chem. 217 959-966 (1965)) by measuring the absorbance at 545 nm.
The reversibility of the hyaluronidase was determined by evaluating enzyme activity at different levels of enzyme (Ackermann and Potter, Proc. Soc. Exp. Biol. Med. 72 1-9 (1949)).

[2] = system: bovine papillomavirus type I; conditions: general statement; cited from earlier work
HIV-1 virus = conditions: general statement, no assay details; cited from earlier work

With Nonoxynol-9 the “inhibition of growth of Lactobacillus gasseri” value (Lactobacillus gasseri) was “about 60%”, the “toxicity towards the host cells” value (MT2 cells) was “did show cytotoxic effects” and the IC50 [1] was “inactive”. The “inhibition of the non-enveloped papillomavirus (statement)” value [2] was “not” and the “inhibition of the enveloped virus HIV (statement)” value (HIV-1 virus) was “inhibits”.
